Test results from PubChem BioAssay AID2060910 (Molecular Pharmacology Branch, DTP, NCI, 2025).
Blank lines part the entries; values can stand above or below the compound they belong to.

System: 242566-281-R-J2-PDC complex spheroid viability
Test: Anticancer human tumor 242566-281-R-J2-PDC patient-derived pancreatic carcinoma cell line growth inhibition [RAS]
Conditions: for viability, T/C: stronger effect = lower value
Outline: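 Agents were tested in combination matrices in half-log decrements from a top concentration at or near clinical Cmax (10 microM if undetermined). Targets were multi-cell spheroids of tumour lines plus HUVEC and MSC stromal cells.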
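Further: spheroids exposed to compound for 7 days before readout.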
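Wherever viability, T/C is given: 100% = DMSO vehicle control wells.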

SMILES: CC1(C)CCC(Nc2ncc(C(F)(F)F)c(-c3c[nH]c4c(P(C)(C)=O)c(C#N)ccc34)n2)CN1 (stereo not given) + CCn1c(-c2cc(N3CCN(C)CC3)cnc2C(C)OC)c2c3cc(ccc31)-c1csc(n1)CC(NC(=O)C1CC1C)C(=O)N1CCCC(N1)C(=O)OCC(C)(C)C2
- IC50 (curve of first compound, second compound 0.000949 µM): > 300 nM
- IC50 (curve of first compound, second compound 0.003 µM): > 300 nM
- IC50 (curve of first compound, second compound 0.00949 µM): < 0.949 nM
- IC50 (curve of first compound, second compound 0.03 µM): < 0.949 nM
- IC50 (curve of first compound, second compound 0.0949 µM): < 0.949 nM
- IC50 (curve of first compound, second compound 0.3 µM): < 0.949 nM
- viability, T/C (second compound 0.000949 µM, first compound 0.000949 µM): 101%
- viability, T/C (second compound 0.000949 µM, first compound 0.003 µM): 98%
- viability, T/C (second compound 0.000949 µM, first compound 0.00949 µM): 73.5%
- viability, T/C (second compound 0.000949 µM, first compound 0.03 µM): 88%
- viability, T/C (second compound 0.000949 µM, first compound 0.0949 µM): 85.3%
- viability, T/C (second compound 0.000949 µM, first compound 0.3 µM): 61.3%
- viability, T/C (second compound 0.003 µM, first compound 0.000949 µM): 81.6%
- viability, T/C (second compound 0.003 µM, first compound 0.003 µM): 69.6%
- viability, T/C (second compound 0.003 µM, first compound 0.00949 µM): 63.8%
- viability, T/C (second compound 0.003 µM, first compound 0.03 µM): 67.8%
- viability, T/C (second compound 0.003 µM, first compound 0.0949 µM): 68.3%
- viability, T/C (second compound 0.003 µM, first compound 0.3 µM): 48.8%
- viability, T/C (second compound 0.00949 µM, first compound 0.000949 µM): 49.6%
- viability, T/C (second compound 0.00949 µM, first compound 0.003 µM): 39.9%
- viability, T/C (second compound 0.00949 µM, first compound 0.00949 µM): 45.5%
- viability, T/C (second compound 0.00949 µM, first compound 0.03 µM): 39.3%
- viability, T/C (second compound 0.00949 µM, first compound 0.0949 µM): 35.5%
- viability, T/C (second compound 0.00949 µM, first compound 0.3 µM): 36%
- viability, T/C (second compound 0.03 µM, first compound 0.000949 µM): 30.7%
- viability, T/C (second compound 0.03 µM, first compound 0.003 µM): 32.9%
- viability, T/C (second compound 0.03 µM, first compound 0.00949 µM): 30.2%
- viability, T/C (second compound 0.03 µM, first compound 0.03 µM): 27.8%
- viability, T/C (second compound 0.03 µM, first compound 0.0949 µM): 19.6%
- viability, T/C (second compound 0.03 µM, first compound 0.3 µM): 27.2%
- viability, T/C (second compound 0.0949 µM, first compound 0.000949 µM): 22.5%
- viability, T/C (second compound 0.0949 µM, first compound 0.003 µM): 24.8%
- viability, T/C (second compound 0.0949 µM, first compound 0.00949 µM): 21.6%
- viability, T/C (second compound 0.0949 µM, first compound 0.03 µM): 21.6%
- viability, T/C (second compound 0.0949 µM, first compound 0.0949 µM): 19.4%
- viability, T/C (second compound 0.0949 µM, first compound 0.3 µM): 23.6%
- viability, T/C (second compound 0.3 µM, first compound 0.000949 µM): 21.6%
- viability, T/C (second compound 0.3 µM, first compound 0.003 µM): 19.4%
- viability, T/C (second compound 0.3 µM, first compound 0.00949 µM): 21.3%
- viability, T/C (second compound 0.3 µM, first compound 0.03 µM): 17.5%
- viability, T/C (second compound 0.3 µM, first compound 0.0949 µM): 18.6%
- viability, T/C (second compound 0.3 µM, first compound 0.3 µM): 18.3%

SMILES: CC(=O)OC12COC1CC(O)C1(C)C(=O)C(O)C3=C(C)C(OC(=O)C(O)C(NC(=O)OC(C)(C)C)c4ccccc4)CC(O)(C(OC(=O)c4ccccc4)C21)C3(C)C (stereo not given)
- viability, T/C (compound 0.0316 µM): 54.6% [middle of 4 runs]
- viability, T/C (compound 0.316 µM): 47.6% [middle of 4 runs]
- viability, T/C (compound 1 µM): 43.5% [middle of 4 runs]
- viability, T/C (compound 3.16 µM): 51.3% [middle of 4 runs]

SMILES: C=CC(=O)N1CCN(c2nc(OCC3CCCN3C)nc3c(F)c(-c4nc(N)cc(C)c4C(F)(F)F)c(Cl)cc23)C(C)C1 (stereo not given) + C#Cc1c(F)ccc2cc(O)cc(-c3ncc4c(N5CC6CCC(C5)N6)nc(OCC56CCCN5CC(F)C6)nc4c3F)c12
- IC50 (curve of first compound, second compound 0.0316 µM): > 1000 nM
- IC50 (curve of first compound, second compound 0.1 µM): > 1000 nM
- IC50 (curve of first compound, second compound 0.316 µM): > 1000 nM
- IC50 (curve of first compound, second compound 1 µM): > 1000 nM
- IC50 (curve of first compound, second compound 3.16 µM): 29.9 nM
- IC50 (curve of first compound, second compound 10 µM): > 1000 nM
- viability, T/C (second compound 0.0316 µM, first compound 0.00316 µM): 95.7%
- viability, T/C (second compound 0.0316 µM, first compound 0.01 µM): 113%
- viability, T/C (second compound 0.0316 µM, first compound 0.0316 µM): 95.9%
- viability, T/C (second compound 0.0316 µM, first compound 0.1 µM): 66.7%
- viability, T/C (second compound 0.0316 µM, first compound 0.316 µM): 71.1%
- viability, T/C (second compound 0.0316 µM, first compound 1 µM): 91.7%
- viability, T/C (second compound 0.1 µM, first compound 0.00316 µM): 83.9%
- viability, T/C (second compound 0.1 µM, first compound 0.01 µM): 90.8%
- viability, T/C (second compound 0.1 µM, first compound 0.0316 µM): 79.9%
- viability, T/C (second compound 0.1 µM, first compound 0.1 µM): 57.2%
- viability, T/C (second compound 0.1 µM, first compound 0.316 µM): 75.3%
- viability, T/C (second compound 0.1 µM, first compound 1 µM): 76.5%
- viability, T/C (second compound 0.316 µM, first compound 0.00316 µM): 80%
- viability, T/C (second compound 0.316 µM, first compound 0.01 µM): 74.6%
- viability, T/C (second compound 0.316 µM, first compound 0.0316 µM): 60.1%
- viability, T/C (second compound 0.316 µM, first compound 0.1 µM): 62.3%
- viability, T/C (second compound 0.316 µM, first compound 0.316 µM): 56.5%
- viability, T/C (second compound 0.316 µM, first compound 1 µM): 63.3%
- viability, T/C (second compound 1 µM, first compound 0.00316 µM): 60.6%
- viability, T/C (second compound 1 µM, first compound 0.01 µM): 61.9%
- viability, T/C (second compound 1 µM, first compound 0.0316 µM): 48.4%
- viability, T/C (second compound 1 µM, first compound 0.1 µM): 50.7%
- viability, T/C (second compound 1 µM, first compound 0.316 µM): 56.1%
- viability, T/C (second compound 1 µM, first compound 1 µM): 61%
- viability, T/C (second compound 3.16 µM, first compound 0.00316 µM): 56.4%
- viability, T/C (second compound 3.16 µM, first compound 0.01 µM): 56.8%
- viability, T/C (second compound 3.16 µM, first compound 0.0316 µM): 40.5%
- viability, T/C (second compound 3.16 µM, first compound 0.1 µM): 51.1%
- viability, T/C (second compound 3.16 µM, first compound 0.316 µM): 52.5%
- viability, T/C (second compound 3.16 µM, first compound 1 µM): 54.5%
- viability, T/C (second compound 10 µM, first compound 0.00316 µM): 51.2%
- viability, T/C (second compound 10 µM, first compound 0.01 µM): 53.2%
- viability, T/C (second compound 10 µM, first compound 0.0316 µM): 46.8%
- viability, T/C (second compound 10 µM, first compound 0.1 µM): 48.6%
- viability, T/C (second compound 10 µM, first compound 0.316 µM): 57.3%
- viability, T/C (second compound 10 µM, first compound 1 µM): 53.4%

Now from value to compound, other results behind:

- IC50 (curve of compound): 1.41 µM [middle of 4 runs]
SMILES: CC(Nc1ccc2c(c1)OCCn1cc(N3C(=O)OCC3C(F)F)nc1-2)C(N)=O (stereo not given)
- viability, T/C (compound 0.0316 µM): 99.1% [middle of 4 runs]
- viability, T/C (compound 0.1 µM): 99.7% [middle of 4 runs]
- viability, T/C (compound 1 µM): 57.4% [middle of 4 runs]
- viability, T/C (compound 3.16 µM): 37.6% [middle of 4 runs]
- viability, T/C (compound 10 µM): 28.8% [middle of 4 runs]

- IC50 (curve of compound): 4.51 µM [middle of 4 runs]
SMILES: CCC(CC)c1cc(NC2CCC(N)C2)n2nccc2n1 (stereo not given)
- viability, T/C (compound 0.0316 µM): 105% [middle of 4 runs]
- viability, T/C (compound 0.1 µM): 119% [middle of 4 runs]
- viability, T/C (compound 0.316 µM): 105% [middle of 4 runs]
- viability, T/C (compound 1 µM): 114% [middle of 4 runs]
- viability, T/C (compound 10 µM): 2.75% [middle of 4 runs]
